{
  "source": "patent US11134680B2",
  "about": "“Disinfectant having organic acids” (Bode Chemie GmbH, priority 2015, dated 2021)",
  "origin": "cited, not measured here",
  "key": {"[1]": {"test_system": "Staphylococcus aureus", "conditions": "exposure time of 72 hours"}, "[2]": {"conditions": "at 20° C."}, "[3]": {"test_system": "C. albicans", "conditions": "72 hours"}},
  "data": [
    {"smiles": "CC(=O)O", "note": "[acetic acid]", "values": [
      {"measurement": "minimum inhibitory concentration (MIC)", "setting": "[1]", "value": 9, "unit": "%"}
    ]},
    {"smiles": "CC(O)C(=O)O", "note": "(centres unmarked) [lactic acid]", "values": [
      {"measurement": "pKa", "setting": "[2]", "value": 3.87},
      {"measurement": "reduction factor", "setting": "[1]; concentration of 0.3%", "value": "> 5", "unit": "log"}
    ]},
    {"smiles": "O=C([O-])c1ccccc1.[Na+]", "note": "[sodium benzoate]", "values": [
      {"measurement": "MMC", "setting": "[3]; >5 log", "value": 1200, "unit": "µg/mL"},
      {"measurement": "reduction (microbicidal action)", "setting": "[3]; application solution of 0.12%", "value": "> 5", "unit": "log"}
    ]}
  ]
}
